Results published in patent publication US10543183B2, “Treatment and diagnosis of melanoma” (The Rockefeller University, priority 2012, dated 2020).
Structures can show the parent of a compound that is named as a salt.

Key:
[1] = test system: human melanoma cells (MeWo, MeWo-LM2, HT-144, SK-Mel-2, SK-Mel-334.2); test: trans-well matrigel cell invasion assay, melanoma cells; type: cell-based; details: for ability of melanoma cells to invade through matrigel: MeWo, HT-144, SK-Mel-2, SK-Mel-334.2, 1 μM for 72 hours
Protocol: Cancer cells were serum-starved in 0.2% FBS DMEM-based media for 12 hours. Trans-well invasion chambers (354480, BD Biosciences, Bedford, Mass.) were pre-equilibrated prior to beginning the assay by adding 0.5 mL of starvation media to the top and bottom chambers. After 30 minutes, the media in the top chamber was removed, and 0.5 mL of media containing 1×10^5 cancer cells was added into each matrigel-coated trans-well insert and incubated at 37° C. for 24 hours. For neutralization antibody and/or recombinant protein experiments, antibody/recombinant protein was added to each well at the start of the assay at the following concentrations as indicated in the figures: 5-40 μg/mL anti-ApoE 1D7 (Heart Institute, University of Ottawa), 5-40 μg/mL anti-IgG (AB-108-C, R&D Systems, Minneapolis, Minn.), 100 μM recombinant human ApoE3 (4696, BioVision, Mountain View, Calif.), and 100 μM BSA (A2153, Sigma-Aldrich). Upon completion of the assay, matrigel-coated inserts were washed with PBS, the cells at the top side of each insert were scraped off, and the inserts were fixed in 4% paraformaldehyde for 15 minutes. The inserts were then cut out and mounted onto slides using VectaShield mounting medium containing DAPI (H-1000, Vector Laboratories, Burlingame, Calif.). The basal side of each insert was imaged using an inverted fluorescence microscope (Zeiss Axiovert 40 CFL) at 5× magnification, taking three representative images for each insert. The number of invaded cells was quantified using ImageJ (NIH).
The cell invasion assay was performed as previously described in detail (Pencheva et al., 2012) using a trans-well matrigel invasion chamber system (354480, BD Biosciences). In brief, various melanoma cells were cultured in the presence of DMSO, GW3965, T0901317, or Bexarotene at 1 μM for 56 hours, after which melanoma cells were switched to starvation media (0.2% FBS) for 16 hours in the presence of each drug. Following starvation, cells were seeded into matrigel-coated trans-well inserts, and the invasion assay was allowed to proceed for 24 hours at 37° C. For ApoE antibody neutralization experiments, 40 μg/mL 1D7 anti-ApoE blocking antibody (Heart Institute, University of Ottawa, Ottawa, Canada) or 40 μg/mL anti-IgG control antibody (AB-108-C, R&D Systems, Minneapolis, Minn.) was added to each trans-well insert at the start of the assay.
The cells were then serum starved for 16 hours in 0.2% FBS media in the presence of each corresponding drug or DMSO. Following serum starvation, the cells were subjected to the trans-well invasion assay using a matrigel invasion chamber system (354480, BD Biosciences). Invasion chambers were pre-equilibrated prior to the assay by adding 0.5 mL of starvation media to the top and bottom wells. Meanwhile, cancer cells were trypsinized and viable cells were counted using trypan blue. Cancer cells were then resuspended at a concentration of 2×10^5 cells/1 mL starvation media, and 0.5 mL of cell suspension, containing 1×10^5 cells, was seeded into each trans-well. The invasion assay was allowed to proceed for 24 hours at 37° C. […] Following fixation, the inserts were washed in PBS, cut out, and mounted onto slides using VectaShield mounting medium containing DAPI nuclear stain (H-1000, Vector Laboratories). The basal side of each insert was imaged using an inverted fluorescence microscope (Zeiss Axiovert 40 CFL) at 5× magnification, and the number of DAPI-positive cells was quantified using ImageJ.

[2] = test system: breast, renal, pancreatic and lung cancer cell lines; test: trans-well matrigel invasion assay, other cancer types; type: cell-based, human
Protocol: The ability of cancer cells to invade through matrigel in vitro was tested by using a trans-cell matrigel invasion chamber system (354480, BD Biosciences). Various cancer cell lines were serum-starved overnight in media containing 0.2% FBS. The following day, invasion chambers were pre-equilibrated prior to the assay by adding 0.5 mL of starvation media to the top and bottom wells. Meanwhile, cancer cells were trypsinized and viable cells were counted using the trypan blue dead cell exclusion dye. Cancer cells were then resuspended at a concentration of 1×10^5 cells/1 mL starvation media, and 0.5 mL of cell suspension, containing 5×10^4 cells, was seeded into each trans-well. […] The basal side of each insert was imaged using an inverted fluorescence microscope (Zeiss Axiovert 40 CFL) at 5× magnification, and the number of DAPI-positive cells was quantified using ImageJ.
The cells were serum starved for 16 hours in 0.2% FBS media in the presence of DMSO or GW3965. […] Meanwhile, cancer cells were trypsinized and viable cells were counted using trypan blue. […] The basal side of each insert was imaged using an inverted fluorescence microscope (Zeiss Axiovert 40 CFL) at 5× magnification, and the number of DAPI-positive cells was quantified using ImageJ.

[3] = test system: B16F10 mouse melanoma cells; test: subcutaneous B16F10 tumor growth in mice; type: in vivo; details: for primary tumor growth in vivo (FIG. 21): mouse; for suppression of tumor growth by B16F10 cells: 20 mg/kg, tumors 5-10 mm3 at start, immunocompetent mice

Molecule: O=C(O)Cc1cccc(OCCCN(Cc2cccc(C(F)(F)F)c2Cl)CC(c2ccccc2)c2ccccc2)c1 [GW3965 2, 3-[3-[N-(2-Chloro-3-trifluoromethylbenzyl)-(2,2-diphenylethyl)amino]propyloxy] phenylacetic acid hydrochloride]
- ability of melanoma cells to invade through matrigel [1]: consistently suppressed
- tumor cell invasion ([1]; parental MeWo cells pre-treated for 48 hours): decreased
- tumor cell invasion of renal, pancreatic and lung cancer cells ([2]; RCC, PANC1, H460 cells, 1 μM for 72 hours): inhibition
- suppression of tumor growth in mice genetically inactivated for ApoE ([3]; ApoE−/− mice, diet 20 mg/kg): completely ineffective
- tumor growth inhibition upon LXRα inactivation ([3]; LXRα−/− mice, diet 20 mg/kg): had no effect
- ability to suppress melanoma tumor growth upon genetic ablation of systemic LXRβ ([3]; LXRβ−/− mice, diet 20 mg/kg): blocked
- primary tumor growth in vivo (FIG. 21) [3]: inhibit
- suppression of tumor growth by B16F10 cells ([3]; oral): 67%
- reduction in tumor growth by B16F10 cells ([3]; oral, 100 mg/kg): 80%
- reduction in growth of established large B16F10 tumors ([3]; tumors ~150 mm3 at start, chow 150 mg/kg): roughly 50%

Molecule: O=S(=O)(c1ccccc1)N(CC(F)(F)F)c1ccc(C(O)(C(F)(F)F)C(F)(F)F)cc1 [T0901317 1]
- ability of melanoma cells to invade through matrigel [1]: consistently suppressed
- primary tumor growth in vivo (FIG. 21) [3]: inhibit
- suppression of tumor growth by B16F10 cells ([3]; oral): 61%

Molecule: recombinant ApoE3: recombinant human ApoE3 (4696, BioVision)
- invasion by metastatic LM2 cells ([1]; 100 μM added to cell media): significantly suppressed
- tumor cell invasion across breast, renal cell and pancreatic cancer ([2]; 100 μg/mL at start of assay): inhibited
